Measured values taken from paper PMC2965201 (Bioorganic & medicinal chemistry, 2010).

Key:
[1] = system: Rce1p; conditions: ref [8], [10]; cited from earlier work
[2] = system: Rce1p; conditions: previously reported, ref [9], [10], [13], cited from earlier work; for Vmax: no quencher
[3] = biological target: T1, yeast Rce1p (Saccharomyces cerevisiae, UniProt Q03530); experiment: In vitro fluorescence-based Ca1a2X proteolysis assay; format: biochemical, S. cerevisiae
T1 sequence (Q03530 1-315): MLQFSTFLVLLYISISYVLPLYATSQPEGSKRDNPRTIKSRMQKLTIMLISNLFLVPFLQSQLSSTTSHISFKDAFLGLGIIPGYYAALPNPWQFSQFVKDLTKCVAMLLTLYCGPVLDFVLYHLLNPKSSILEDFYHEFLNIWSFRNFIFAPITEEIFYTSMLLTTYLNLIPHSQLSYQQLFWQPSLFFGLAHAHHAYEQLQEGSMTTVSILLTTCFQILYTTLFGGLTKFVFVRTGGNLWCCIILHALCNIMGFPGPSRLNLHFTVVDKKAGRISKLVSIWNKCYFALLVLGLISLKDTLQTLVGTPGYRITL

[4] = system: Rce1p; experiment: Large-scale Rce1p proteolysis with ESI-MS and MS-MS identification of product; format: biochemical, S. cerevisiae; conditions: 150 μM substrate, membranes 0.3 mg/mL, 100 mM Hepes, 5 mM MgCl2, pH 7.5, 30 °C, 3–3.5 h; ESI-MS [M+2H]2+

Compound | inhibition of Rce1p [1] | Vmax [2] | Km [2] | also measured
[Zn] [zinc] | inhibited | – | – | –
KSKTKC(Fr)VIM | – | 600 nmol/h/mg Rce1p-containing membrane protein | 4 µM | –
c1cnc2c(c1)ccc1cccnc12 [1,10-phenanthroline] | inhibited | – | – | –
Abz-KSKTKC(C5BP)K(Dnp)IM [Peptide 4] | – | – | – | Vmax/KM ([3]; carbonate-washed yeast membranes, pH 7.5, 30 °C, n=2 (2), n=5 (4)): 4.8×10^−5 min/mg protein; binding affinity of 4 relative to 2 (fold higher, from KM) ([3]; compared with 2): 3.4 fold; efficiency (Vmax/KM) of 4 relative to 2 (fold lower) ([3]; compared with 2): approximately 18 fold; maximal rate of 4 relative to 2 (fold lower) ([3]; compared with 2): approximately 60 fold; identity of product of Rce1p-catalyzed proteolysis [4]: consistent with the expected product 8
Abz-KSKTKC(Fr)VIM | – | 600 nmol/h/mg Rce1p-containing membrane protein | 4 µM | –
